Source: publication PMC9541285, “Drug‐dependent inhibition of nucleotide hydrolysis in the heterodimeric ABC multidrug transporter PatAB from Streptococcus pneumoniae” (The Febs Journal, 2022)

Key:
PatAB (PatA^WTB^WT) [1] = biological target: T1, PatAB (PatA^WTB^WT) (Streptococcus pneumoniae, UniProt A0ACD7PU88+Q8DN70, Q8DN70:Q521A); assay: biochemical
T1 construct: gene ABC-NP
Excerpt: ATPase inhibition, malachite green Pi assay on PatAB (PatA^WTB^WT)

PatAB (PatA^WTB^WT) [2] = biological target: T2, PatAB (PatA^WTB^WT) (Streptococcus pneumoniae, UniProt A0ACD7PU88+Q8DN70); assay: ATPase inhibition, malachite green Pi assay; assay type: biochemical
T2 construct: gene ABC-NP; full length; N-terminal His6-PatA and C-terminal PatB-His10, tags kept; coexpressed in Lactococcus lactis NZ9000 ΔlmrA ΔlmrCD

PatAB (PatA^WTB^WT) [3] = biological target: T2, PatAB (PatA^WTB^WT); assay: competition with EMA photolabelling, in-gel fluorescence; assay type: binding; conditions: 20-fold excess over EMA, membrane vesicles; also transported substrate (efflux from L. lactis cells)
[4] = system: Nc1nc2c(ncn2[C@@H]2O[C@H](COP(=O)(O)OP(=O)(O)OP(=O)(O)O)[C@@H](O)[C@H]2O)c(=O)[nH]1; assay: GTPase, malachite green Pi assay; assay type: biochemical, Streptococcus pneumoniae; conditions: 10 mM MgCl2, pH 7.0, 30 °C, DDM, no drug
PatAB (PatA^WTB^WT) [5] = biological target: T2, PatAB (PatA^WTB^WT); assay: fluorescence anisotropy titration; assay type: binding

Molecule | IC50 (PatAB (PatA^WTB^WT) [1]) | IC50 (PatAB (PatA^WTB^WT) [2]) | % reduction in EMA incorporation (PatAB (PatA^WTB^WT) [3]) | Km [4] | Kd (PatAB (PatA^WTB^WT) [5])
CO[C@@H]1[C@@H](OC(=O)c2ccc(C)[nH]2)[C@@H](O)[C@H](Oc2ccc3c(O)c(NC(=O)c4c[nH]c(C(=O)Nc5c(O)c6ccc(O[C@@H]7OC(C)(C)[C@H](OC)[C@@H](OC(=O)c8ccc(C)[nH]8)[C@H]7O)c(C)c6oc5=O)c4C)c(=O)oc3c2C)OC1(C)C [Coumermycin A1] | 3 ± 1 µM | 3.7 ± 0.4 µM | – | – | –
CC[N+](C)(CC)CCC[n+]1c(-c2ccccc2)c2cc(N)ccc2c2ccc(N)cc21 [Propidium] | 0.9 ± 0.8 µM | 0.9 ± 0.6 µM | – | – | –
COc1cccc2c1C(=O)c1c(O)c3c(c(O)c1C2=O)C[C@@](O)(C(C)=O)C[C@@H]3O[C@H]1C[C@H](N)[C@H](O)[C@H](C)O1 [daunomycin] | – | – | 75% | – | –
CO[C@@H]1[C@@H](OC(N)=O)[C@@H](O)[C@H](Oc2ccc3c(O)c(NC(=O)c4ccc(O)c(CC=C(C)C)c4)c(=O)oc3c2C)OC1(C)C [Novobiocin] | 9.7 ± 2 µM | 4.6 ± 1.7 µM | – | – | –
PatAB (PatA^WTB^WT) (Streptococcus pneumoniae) | – | – | – | 1100 ± 400 µM | –
CC[n+]1c(-c2ccccc2)c2cc(N)ccc2c2ccc(N)cc21 [Ethidium] | 6.5 ± 1.7 µM | 7.1 ± 1.8 µM | – | – | 0.103 µM
